Holding throughout (experiment): inhibition of tumour cell growth, NCI panel, 48 h
Experiment [1] relates to OVCAR-8 ovarian.
Experiment [2] concerns UO-31 renal.
For experiment [3], the system named is HOP-62 NSCLC.
The test system of experiment [4] is SF-268 CNS.
Experiment [5] deals with SK-OV-3 ovarian.
Experiment [6] relates to SN12C renal.
Experiment [7] concerns KM12 colon.
For experiment [8], the system named is EKVX NSCLC.
The subject of experiment [9] is OVCAR-4 ovarian.

The results in this text go back to PubChem BioAssay (NCI).

Values joined by “and” are separate entries in the source; they are usually repeats but may differ in a detail not shown here. Identical values can stand only once.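 Test compounds were applied to cells in 96-well plates for 48 hours at 5 doses. GI50 is the concentration that inhibits growth by half. TGI denotes the concentration required for complete inhibition of growth.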

As for `Cc1nc2c(o1)C(=Nc1ccccc1)c1nc(C)oc1C2=Nc1ccccc1`, the TGI came to 34.3 µM in experiment [1]; 35.1 µM in [2]; 36.3 µM in [3]; 47.9 µM in experiment [4]; 40.4 µM in [5]; 34.8 µM in experiment [6].
As for `Clc1cccc(-c2nnc(-c3nn(-c4ccccc4)c4nc5ccccc5nc34)o2)c1`, the TGI in experiment [7], in [1], in [8], in experiment [2], in [3] and in experiment [4] was over 100 µM each time. The TGI in experiment [5], in [9] and in experiment [6] was over 100 µM each time.
For `COC1OC2COC(C)(C)OC2C(OC(C)=O)C1NC(=O)N(CCCl)N=O` (stereo unspecified), the TGI in [7], in experiment [1], in experiment [8], in experiment [3], in [4] and in [5] was over 100 µM in each case. Further, the TGI in experiment [9] and in experiment [6] was over 100 µM in each case.
On to `CC(=O)[CH-]C(=O)c1ccccc1.CC(=O)[CH-]C(=O)c1ccccc1.O=S(=O)([O-])c1cc([O-])c2c([O-])cc(S(=O)(=O)[O-])cc2c1.[Na+].[Zr+4]`, for which the GI50 is over 100 µM in experiment [7]; over 100 µM in experiment [1]; over 100 µM in [8]; over 100 µM in experiment [2]; 76 µM in experiment [3]; over 100 µM in experiment [4]. For the same compound, the GI50 is over 100 µM in experiment [5], over 100 µM in [9] and 97.3 µM in [6]. Also, the TGI in [7], in [1], in experiment [8], in [2], in experiment [3] and in experiment [4] was over 100 µM throughout. The TGI in experiment [5], in experiment [9] and in [6] was over 100 µM in each case.
Consider `COc1cc(/C=N/N=C(\N)NO)c(Cl)cc1O`, for which the TGI in experiment [7], in [1], in experiment [8], in experiment [2], in experiment [4] and in [5] was over 100 µM each time. Moreover, the TGI in experiment [9] and in experiment [6] was over 100 µM in each case.
As to `Cc1cc(C)c(-c2noc(-c3ccc(Cl)cc3)c2C2=NCCCN2)c(C)c1`, the TGI was over 100 µM in [7]; over 100 µM in experiment [1]; over 100 µM in [8]; over 100 µM in experiment [2]; 85.8 µM in [3]; 49.6 µM in [4]. For the same compound, the results for the TGI in experiment [5], in [9] and in [6] were over 100 µM, over 100 µM and 82.6 µM, respectively.
Take `O=C(Nc1ccc(Cl)cc1Cl)OC(Cn1cncn1)c1ccc(Cl)cc1Cl` (stereo unspecified): the TGI in experiment [7] is 31 µM; in experiment [1], 31.8 µM; in [8] it was 31.5 µM; in experiment [2], 26 µM; in experiment [3] it was 34.5 µM; in experiment [4], 31.9 µM. Also, the TGI in experiment [5] stood at 34.7 µM; in [9], 28 µM; in experiment [6], 30.7 µM.
For the compound `COc1ccc(S(=O)(=O)N(CC(=O)O)c2ccccc2)cc1`, the TGI in [7], in experiment [1], in experiment [8], in experiment [2], in [4] and in [5] was over 100 µM each time. The TGI in experiment [9] and in experiment [6] was over 100 µM in each case.
`c1ccc(CNCCN(CCNCc2ccccn2)Cc2ccc3ccccc3c2)nc1`: the GI50 in experiment [7] is 2.14 µM; in experiment [1], 2.27 µM; in [8], 1.71 µM; in experiment [2] it was 0.668 µM; in experiment [3], 2.17 µM; in experiment [4] it was 2.89 µM. The GI50 is 1.94 µM in experiment [5], 1.88 µM in experiment [9] and 3.21 µM in experiment [6]. The TGI came out at 4.85 µM in experiment [7]; 6.29 µM in experiment [1]; 7.58 µM in experiment [8]; 2.3 µM in experiment [2]; 6.69 µM in experiment [3]; 12.3 µM in [4]. In addition, the TGI in [5] was 5.11 µM; in [9], 5.3 µM; in experiment [6] it was 11.1 µM.
In the case of `C/C=C1\CN2CCc3c([nH]c4ccccc34)C2CC1CCO` (stereo unspecified), the TGI in experiment [7], in experiment [1], in experiment [8], in [2], in [3] and in [4] was over 100 µM throughout. For the same compound, the TGI in [5], in [9] and in [6] was over 100 µM in each case.
For the compound `N#CC(C(=O)/C(=N\NC(N)=O)C(C#N)c1ccccc1)c1ccccc1` (stereo unspecified), the TGI in experiment [7], in [1], in experiment [8], in experiment [2], in experiment [3] and in experiment [4] was over 100 µM throughout. The TGI in experiment [5], in [9] and in [6] was over 100 µM each time.
As to `COc1c(-c2ccccc2)nc2ccc(Oc3ccccc3)nn12`, the TGI in experiment [7], in experiment [1], in experiment [8], in [2], in [3] and in experiment [4] was over 100 µM in each case. For the same compound, the TGI in [5] was over 100 µM; in [9], over 71.3 µM; in experiment [6], over 100 µM.
In the case of `O=C1C2C3CC(C4C5C=CC(C5)C34)C2C2C3CC(C12)C1C2C=CC(C2)C31` (stereo unspecified), the TGI in experiment [7], in experiment [1], in experiment [8], in experiment [2], in experiment [3] and in [4] was over 100 µM each time. The TGI in [5], in experiment [9] and in experiment [6] was over 100 µM throughout.
As to `CN(/N=C/c1ccnc2ccccc12)c1c([N+](=O)[O-])cc([N+](=O)[O-])cc1[N+](=O)[O-]`, the TGI in [7], in [1], in [8], in [2], in experiment [3] and in experiment [4] was over 100 µM in each case. Further, the TGI in experiment [5], in [9] and in experiment [6] was over 100 µM throughout.
In the case of `CCCCCCCCCC[C@H](O)[C@H](O)CC[C@@H](O)[C@H]1CC[C@@H]([C@H]2CC[C@H](CCCCCCC[C@@H](O)CC3=C[C@H](C)OC3=O)O2)O1`, the GI50 in experiment [7] is 27.7 µM; in experiment [8], 18.5 µM; in experiment [2] it was 16.6 µM; in experiment [3] it was 11.6 µM; in [4], 29.3 µM; in experiment [6], 25.3 µM. Also, the TGI in experiment [7] was over 100 µM; in experiment [2], 4.18 µM and 32.3 µM; in [3], 69.8 µM; in [4], over 100 µM; in experiment [9], 78 µM; in experiment [6], 74.8 µM.
As for `N/N=C(/Cc1nc2ccc(C(=O)c3ccccc3)cc2[nH]c1=O)C(=O)Nc1ccc([N+](=O)[O-])cc1[N+](=O)[O-]`, the TGI in experiment [7], in experiment [1], in [8], in [2], in [4] and in experiment [5] was over 100 µM throughout. The values for the TGI in experiment [9] and in [6] were 71.5 µM and over 100 µM, respectively. Further, the GI50 in experiment [4] and in experiment [6] was over 100 µM in each case.
On to `CN(/N=C\c1ccnc2ccccc12)c1ccc([N+](=O)[O-])cc1`, for which the TGI in [7], in experiment [1], in experiment [8], in experiment [3], in experiment [4] and in [5] was over 100 µM each time. In experiment [6], this compound registered a TGI of over 100 µM.
Regarding `CNS(=O)(=O)NNS(=O)(=O)c1ccc(OC)cc1`, the TGI in experiment [7], in [1], in experiment [8], in experiment [2], in experiment [3] and in [4] was over 100 µM throughout. Moreover, the TGI in [5] and in experiment [9] was over 100 µM in each case.
For the compound `CCNC(=O)OCc1c(COC(=O)NCC)c(-c2ccc(Cl)c(Cl)c2)n2c1CCC2`, the TGI in experiment [7] was found to be 59 µM; in experiment [1], 41.7 µM; in experiment [2], 24.3 µM; in experiment [3], 23.8 µM; in experiment [4] it was 32.8 µM; in [9] it was 36.1 µM.
For `CN1CCN(C(=O)COc2ccc(/C=C3\CC4C5CC=C6CC(Cl)CCC6(C)C5CCC4(C)C3=O)cc2)CC1` (stereo unspecified), the GI50 in experiment [1] is over 100 µM; in [8] it was over 100 µM; in [2], over 100 µM; in experiment [3], 36.4 µM; in experiment [4] it was over 100 µM; in [5], over 100 µM. Moreover, the GI50 in experiment [9] and in experiment [6] was over 100 µM each time. Besides, the TGI in experiment [1], in experiment [8], in [2], in [3], in [4] and in experiment [5] was over 100 µM each time. Also, the TGI in experiment [9] and in [6] was over 100 µM in each case.
In the case of `COC(=O)[C@@H]1Cc2c([nH]c3ccccc23)[C@H](c2ccccc2)N1`, the TGI in [7] is over 100 µM; in experiment [1], over 100 µM; in experiment [8] it was over 100 µM; in experiment [2], 73.9 µM; in experiment [4] it was over 100 µM; in [5] it was 89.7 µM. For the same compound, the values for the TGI in [9] and in [6] were over 100 µM and 81.5 µM, respectively.
`O=C(Nc1ccc(Cl)c(Cl)c1)C(=O)C(C(=O)c1ccccc1-c1ccccc1)C1OC(=O)c2ccccc21` (stereo unspecified): the TGI in experiment [7] amounted to 43.2 µM; in [1] it was 84.5 µM; in experiment [8] it was 43.4 µM; in [2] it was 33.6 µM; in experiment [3] it was 27.4 µM; in experiment [4] it was 72.2 µM. This compound gave a TGI in experiment [5] of 78.3 µM.
For `COC1(OC)C2(Cl)C(Cl)=C(Cl)C1(Cl)C1C2C2CC1(C(=O)O)c1ccccc12` (stereo unspecified), the TGI in experiment [1] is 88.3 µM; in experiment [2], 44.7 µM; in experiment [3] it was 62.8 µM; in experiment [4], 55.8 µM; in [5], 91.3 µM; in experiment [9], 34.6 µM. The same compound had a TGI in [6] of 40.9 µM.
As for `CC(=O)[C@H]1CCC2[C@@H]3CC=C4C[C@@H]([O-])CC[C@]4(C)C3CC[C@@]21C.CC(=O)[C@H]1CCC2[C@@H]3CC=C4C[C@@H]([O-])CC[C@]4(C)C3CC[C@@]21C.CC(=O)[CH-]C(=O)c1ccccc1.CC(=O)[CH-]C(=O)c1ccccc1.Cl.[Ti+4]` (stereo partly specified), the GI50 was 26.4 µM in experiment [7]; 19.8 µM in [1]; 28.9 µM in experiment [2]; 24.6 µM in [3]; 21.3 µM in experiment [4]; 26.6 µM in experiment [5]. The results for the GI50 in experiment [9] and in [6] were 62 µM and 34.1 µM, respectively. Besides, the TGI was over 100 µM in experiment [7]; 79.2 µM in [1]; 79.3 µM in [2]; 67.6 µM in experiment [3]; 92.8 µM in experiment [4]; 77.4 µM in [5]. The TGI in experiment [9] and in experiment [6] was over 100 µM in each case.
For the compound `O=C1O/C(=C/c2ccccc2)C(c2ccccc2)=C1O`, the TGI in experiment [7] is over 100 µM; in experiment [1] it was over 100 µM; in experiment [8], over 100 µM; in experiment [2] it was 88.1 µM; in experiment [3] it was 94.3 µM; in experiment [5], over 100 µM. Further, the TGI in [9] and in experiment [6] was over 100 µM each time.
Turning to `Clc1cccc(C2N3CCCCC3[C@@H]3c4[nH]c5ccccc5c4CCN23)c1` (stereo partly specified), the TGI in experiment [1] was over 100 µM; in experiment [8], over 100 µM; in [2], 82 µM; in experiment [3] it was over 100 µM; in [4], over 100 µM; in experiment [5], over 100 µM. For the same compound, the TGI was over 100 µM in experiment [9] and 26.5 µM in experiment [6].
